Experimental data as given in patent publication US7544700B2, “Pharmaceutically active sulfonamide derivatives bearing both lipophilic and ionisable moieties as inhibitors of protein JunKinases” (Laboratoires Serono SA, priority 2000, dated 2009).
Counter-ions that a name gives are not always drawn. Values belong to the compound of their own block, whether it stands above or below them.

Key:
[1] = test system: IL-2 release by (PMA+Ionomycin)-stimulated Jurkat cells; experiment: IL-2 release assay (IL-2 ELISA); format: cell-based; conditions: Homo sapiens; PMA + Ionomycine stimulated Jurkat cells
Description: The Ability of the Compounds According to Formula I to Modulate the Inflammatory Response by Inhibiting the Release of IL-2 was Assessed Using the Following Protocol
JNK pathway activation triggers the production of inflammatory cytokines such as IL-2. JNK can be activated by external stimuli such as PMA and Ionomycine and IL-2 production can be measured via an IL-2 ELISA test. Comparative measurements with and without the compounds of the invention according to the following protocol measure the ability of the compounds to prevent to stress-mediated IL-2 release.
Jurkat cells, a human T cell leukemia cell line (American Type Culture Collection # TIB 152) were cultured in RPMI 1640 medium (Gibco, BRL) supplemented with 10% of […] fetal calf serum (FCS), Glutamine and Penstrep. The cell suspension in the medium is diluted to give 2.10^6 cells/mL. The cells were plated (2.10^5 cells/well) on a 96-well plate containing different concentrations of a compound according to formula I (final concentration of compounds, 10, 3, 1, 0.3, 0.1 μM). This mixture is incubated 30 minutes at 37° C. in a humidified CO2 atmosphere. Cells were then treated with 10 μl PMA (Phorbolmyristate-13 Acetate-12)+Ionomycine (0.1 μM and 1 μM final concentration) in all wells except negative control. In wells without compounds, 10 μl of RPMI 2% DMSO (=0.1% final) is added. Cells are incubated 24 hours at 37° C. and then the supernatant harvested (freeze at −20° C. if not used the same day) prior to performing IL-2 ELISA test on the supernatant.
IL-2 release into the medium by (PMA+Iononomycin)-stimulated Jurkat cells, in presence or absence of test compounds may be assayed by ELISA. Following the procedure described below.
Monoclonal anti-human IL-2 antibody (MAB602) (capture), biotinylated anti-human IL-2 antibody (BAF202) (detection) and recombinant human IL-2 (202-IL-010) (standard) from From R&D Systems are used. […]
• 1. […] Optical density is measured using a microtiter plate reader set to 450 nm with correction at 570 nm.

[2] = test system: gerbil bilateral carotid occlusion; experiment: Global ischemia in gerbils; format: in vivo; conditions: 80 mg/kg
Description: The Ability of the JNK Inhibitors Described in Formula I to Protect Cell Death During a Stroke Event was Assessed Using the Following Protocol:
The gerbil bilateral carotid occlusion is a well-described animal model of acute ischemic stroke and involves relatively easy surgical techniques.
The neuronal degeneration in the hippocampus develops over several days and is often referred as “delayed neuronal death”. In addition, the neurodegeneration observed histologically is obvious and easily quantified (37). Furthermore, the histopathology seen in the gerbil is similar to that observed in the hippocampal CA1 region of the human brain following a cardiac arrest. Behavior observations, such as memory tests, could even be performed in the case of gerbils. This kind of tests for appreciation of the degree of recovery is not easily manageable in other models such as in rat whose learning abilities are much poorer (38).
• Anesthesia with isoflurane (0.5-4%). • The common carotid arteries (left and right) are freed from tissue. • Occlusion of the arteries using Bulldog microclamps during 5 min. • Removal of clamps (reperfusion) • Stabulation of the animals under heating lamp until awake. • Stabulation of the animals in the animalry in individual cages. Sacrifice of the Animals • 7 days after ischemia (Decapitation or overdose of pentobarbital). • Sampling of the brain. […]

JNK1 = JNK1 (Homo sapiens, UniProt P45983); experiment: JNK1 inhibition; format: biochemical; conditions: read-out: inhibition (IC50) with regard to JNK1
Solubility in water = format: physicochemical; conditions: pH 7.4, aqueous buffer, pH of 7.4 at room temperature
Description: The compounds have been assessed in respect of their solubility in water, at a pH of 7.4 at room temperature. In general the solubility of compounds of formula (I) is in a range of at least 50 μg/mL solvent, more preferably of at least 100 μg/mL solvent. For instance compounds (63), (163), (198) display a solubility in water of at least 200 μg/mL solvent.

GST-JNK3 = GST-JNK3 (Homo sapiens, UniProt P53779); experiment: JNK3 in vitro assay (33P incorporation into c-jun, SPA); format: biochemical
Description: (§1) The phosphorylation of c-jun by JNK2 or JNK3 may be followed by monitoring the incorporation of ^33P into c-jun following the protocol below. The inhibitory activity of the compounds according to formula I, in respect of c-jun phosphorylation through JNK, is determined by calculating the phosphorylation activity of a JNK in the presence or absence of the test compounds according to formula I.
(§2) JNK3 and/or -2 assays are performed in 96 well NM plates: incubation of 0.5 μg of recombinant, pre-activated GST-JNK3 or GST-JNK2 with 1 μg of recombinant, biotinylated GST-c-Jun and 2 μM ^33γ-ATP (2 nCi/μl), in the presence or absence of compounds according to formula I and in a reaction volume of 50 μl containing 50 mM Tris-HCl, pH 8.0; 10 mM MgCl2; 1 mM Dithiothreitol, and 100 μM NaVO4. The incubation is performed for 120 min. at R.T and stopped upon addition of 200 μl of a solution containing 250 μg of Streptavidine-coated SPA beads (Amersham, Inc.)*, 5 mM EDTA, 0.1% Triton X-100 and 50 μM ATP, in phosphate saline buffer. After incubation for 60 minutes at RT, beads are sedimented by centrifugation at 1500×g for 5 minutes, resuspended in 200 μl of PBS containing 5 mM EDTA, 0.1% Triton X-100 and 50 μM ATP and the radioactivity measured in a scintillation β counter, following sedimentation of the beads as described above. By replacing biotinylated GST-c Jun with biotinylated GST-1ATF2 or biotinylated myelin basic protein, this assay may also be used to measure inhibition of pre-activated p38 and ERK MAP Kinases, respectively.

GST-JNK2 = GST-JNK2 (Homo sapiens, UniProt P45984); experiment: JNK2 in vitro assay (33P incorporation into c-jun, SPA); format: biochemical
Description: as §1, §2

[3] = test system: Sympathetic neurons from superior cervical ganglia (SCG); experiment: Sympathetic neuron culture and survival assay; format: cell-based, rat; conditions: at 3 μM; anti NGF antibody induced cell death, MTT after 24 hours
Description: The Ability of the Compounds According to Formula I to Increase the Survival Rate of Neuronal Cells Having Been Induced to Cell Death was Assessed Using the Following Protocol
Cell death is induced at day 4 after plating by exposing the culture to medium containing 10 μg/mL of anti NGF anti-body (Boehringer Mannheim Corp., Indianapolis, Ind.) and no NGF or arabinosine, in the presence or absence of sulfonamide inhibitors. 24 hours after cell death induction, determination of cell viability is performed by incubation of the culture for 1 hour, at 37° C. in 0.5 mg/mL of 3-(4,5-dimethylthiazol-2-yl)-2,5 diphenyl tetrazolium bromide (MTT). After incubation in MTT cells are resuspended in DMSO, transferred to a 96 MTT plate and cell viability is evaluated by measuring optical density at 590 nm.

Male C57BL/6 mice = experiment: LPS induced endotoxin shock in mice; format: in vivo; conditions: intravenously 15 min before LPS challenge
Description: Endotoxins are the lipopolysaccharides (LPS) constituents of the outer membrane of Gram negative bacteria. […] As LPS is known to stimulate the activation of various MAP kinase pathways, including JNK (35), the ability of JNK inhibitors can be tested after the JNK signaling pathway has been switched on by a LPS challenge.
LPS (S. abortus-Galanos Lab.-) is injected (200 μg/kg, i.v.) to Male C57BL/6 mice to induce endotoxin shock. Compounds according to formula I (0.1, 1, 10 mg/kg) or NaCl ([…]) are injected intravenously (10 mL/kg) 15 min before the LPS challenge. Heparinized blood was obtained from the orbital sinus at different time points after the LPS challenge, and the blood was centrifuged at 9'000 rpm for 10 min at 4° C. to collect supernatent. Measurement of cytokines production such as TNFα and IFNγ by mouse is performed with an ELISA kit such as Duoset® DY410 for TNFα and DY 485 for IFN γ. Other ELISA assays such as described in (36) can be used.

Chain of JNK1 (P45983 whole entry, species assumed): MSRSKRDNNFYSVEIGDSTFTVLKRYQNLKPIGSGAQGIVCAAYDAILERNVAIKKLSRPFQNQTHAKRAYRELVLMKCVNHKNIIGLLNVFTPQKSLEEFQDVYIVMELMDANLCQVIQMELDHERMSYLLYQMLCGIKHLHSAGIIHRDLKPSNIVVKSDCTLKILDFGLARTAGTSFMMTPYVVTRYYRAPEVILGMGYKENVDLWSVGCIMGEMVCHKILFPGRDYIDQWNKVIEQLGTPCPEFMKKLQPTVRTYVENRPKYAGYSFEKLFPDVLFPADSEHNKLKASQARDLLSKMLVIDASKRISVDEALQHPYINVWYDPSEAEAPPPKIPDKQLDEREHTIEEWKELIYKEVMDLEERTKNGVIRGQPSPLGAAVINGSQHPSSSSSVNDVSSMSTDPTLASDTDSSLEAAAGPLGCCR
Chain of GST-JNK2 (P45984 whole entry): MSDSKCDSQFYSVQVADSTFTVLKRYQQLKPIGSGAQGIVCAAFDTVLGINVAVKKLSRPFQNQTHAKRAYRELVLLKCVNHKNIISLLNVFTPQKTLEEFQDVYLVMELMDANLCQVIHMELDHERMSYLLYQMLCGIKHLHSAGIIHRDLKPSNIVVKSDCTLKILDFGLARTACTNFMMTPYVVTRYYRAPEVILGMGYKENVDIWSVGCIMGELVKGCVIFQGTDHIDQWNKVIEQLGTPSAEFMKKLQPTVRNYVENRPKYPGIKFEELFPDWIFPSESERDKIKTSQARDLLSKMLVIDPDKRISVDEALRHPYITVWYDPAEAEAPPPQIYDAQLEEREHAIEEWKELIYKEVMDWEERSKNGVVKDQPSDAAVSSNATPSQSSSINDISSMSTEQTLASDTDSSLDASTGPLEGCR
Chain of GST-JNK3 (P53779 whole entry): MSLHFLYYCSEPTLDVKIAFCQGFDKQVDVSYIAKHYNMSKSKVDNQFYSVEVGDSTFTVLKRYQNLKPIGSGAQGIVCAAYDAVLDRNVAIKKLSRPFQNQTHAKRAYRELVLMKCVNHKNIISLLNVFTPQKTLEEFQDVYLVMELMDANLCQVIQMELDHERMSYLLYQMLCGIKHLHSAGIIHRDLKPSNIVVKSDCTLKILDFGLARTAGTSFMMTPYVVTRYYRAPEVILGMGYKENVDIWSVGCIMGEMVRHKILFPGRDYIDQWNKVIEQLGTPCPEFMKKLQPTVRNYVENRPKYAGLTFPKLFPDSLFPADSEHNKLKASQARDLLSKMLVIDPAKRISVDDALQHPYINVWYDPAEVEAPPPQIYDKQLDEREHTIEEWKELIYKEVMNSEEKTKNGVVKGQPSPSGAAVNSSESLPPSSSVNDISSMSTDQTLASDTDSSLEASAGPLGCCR

IC50 [1]: < 800 nM
SMILES: CCCCNC1CCN(S(=O)(=O)c2ccc(CNC(=O)c3ccc(Cl)cc3)s2)CC1 [Example 68, 4-chloro-N-[(5-{[4-(butylamino)piperidin-1-yl]sulfonyl}thien-2-yl)methyl]benzamide]
inhibition of global ischemia (% inhibition of total lesion) [2]: 64%

IC50 (JNK1): 100 to 700 nM
solubility (Solubility in water): ≥ 200 µg/mL
SMILES: O=C(NCc1ccc(S(=O)(=O)N2CCC(NCc3ccc(C(F)(F)F)cc3)CC2)s1)c1ccc[nH]c1=O [Example 198, 2-Oxo-N-({5-[(4-{[4-(trifluoromethyl)benzyl]amino}-1-piperidinyl)sulfonyl]-2-thienyl}methyl)-1,2-dihydro-3-pyridinecarboxamide]

melting point: 288 to 289 °C
SMILES: O=C(NCc1ccc(S(=O)(=O)N2CCC(NCc3ccc(C(F)(F)F)cc3)CC2)s1)c1ccc[nH]c1=O (as salt: HCl) [Example 198, 2-Oxo-N-({5-[(4-{[4-(trifluoromethyl)benzyl]amino}-1-piperidinyl)sulfonyl]-2-thienyl}methyl)-1,2-dihydro-3-pyridinecarboxamide]

IC50 (GST-JNK3): < 600 nM
IC50 (GST-JNK2): < 600 nM
IC50 (JNK1): 100 to 700 nM
solubility (Solubility in water): ≥ 200 µg/mL
SMILES: CCCCCCNC1CCN(S(=O)(=O)c2ccc(CNC(=O)c3ccc(Cl)cc3)s2)CC1 [Example 63, 4-Chloro-N-[(5-{[4-(hexylamino)piperidin-1-yl]sulfonyl}thien-2-yl)methyl]benzamide]
rescue rate of SCG cells [3]: 35%
inhibition of IFNγ production (Male C57BL/6 mice; 1 mg/kg): 65%
inhibition of TNFα production (Male C57BL/6 mice; 10 mg/kg): 40%
